Values quoted from earlier work as cited in article PMC9187593 (Bioorganic chemistry, 2022).

Test system: ICR mice
Conditions: positive controls

| SMILES | Effect on IP acid-stimulated stretching |
| --- | --- |
| CC(C(=O)O)c1cccc(C(=O)c2ccccc2)c1 (centres unmarked) [ketoprofen] | dose-dependent and significant decrease in IP acid-stimulated stretching |
| COc1ccc2c3c1O[C@H]1C(=O)CC[C@@]4(O)[C@@H](C2)N(C)CC[C@]314 [oxycodone] | dose-dependent and significant decrease in IP acid-stimulated stretching |
